For orientation: EC50 means the concentration that produces a half-maximal response.

Read-outs that look alike come from different tables or passages of the source.

In the assay the target is T1, TAS1R2/TAS1R3 sweet taste receptor (Homo sapiens, UniProt Q7RTX0+Q8TE23).
T1 construct: with TAS1R3
T1 sequence (Q8TE23 20-839): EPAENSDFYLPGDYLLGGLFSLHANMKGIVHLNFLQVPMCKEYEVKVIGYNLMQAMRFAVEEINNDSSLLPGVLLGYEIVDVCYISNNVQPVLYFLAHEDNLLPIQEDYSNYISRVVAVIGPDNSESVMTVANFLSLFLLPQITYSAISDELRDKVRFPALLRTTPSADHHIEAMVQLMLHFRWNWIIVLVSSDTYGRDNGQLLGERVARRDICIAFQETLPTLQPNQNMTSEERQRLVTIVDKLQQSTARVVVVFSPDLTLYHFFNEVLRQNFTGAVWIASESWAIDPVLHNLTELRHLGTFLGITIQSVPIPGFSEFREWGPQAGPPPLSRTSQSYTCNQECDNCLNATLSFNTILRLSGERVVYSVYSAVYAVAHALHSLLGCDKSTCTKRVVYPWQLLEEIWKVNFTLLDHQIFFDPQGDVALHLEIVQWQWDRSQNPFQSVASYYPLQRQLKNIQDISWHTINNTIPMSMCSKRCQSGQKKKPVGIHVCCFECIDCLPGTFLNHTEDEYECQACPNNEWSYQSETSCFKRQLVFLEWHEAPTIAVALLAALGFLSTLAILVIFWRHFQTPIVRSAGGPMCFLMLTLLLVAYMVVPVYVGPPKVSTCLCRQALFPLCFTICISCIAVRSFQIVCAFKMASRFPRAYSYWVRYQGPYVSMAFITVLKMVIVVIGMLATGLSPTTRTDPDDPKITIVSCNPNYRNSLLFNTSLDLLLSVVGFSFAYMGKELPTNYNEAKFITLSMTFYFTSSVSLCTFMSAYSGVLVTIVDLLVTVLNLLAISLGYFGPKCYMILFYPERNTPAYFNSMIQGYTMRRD
T1 sequence (Q7RTX0 21-852): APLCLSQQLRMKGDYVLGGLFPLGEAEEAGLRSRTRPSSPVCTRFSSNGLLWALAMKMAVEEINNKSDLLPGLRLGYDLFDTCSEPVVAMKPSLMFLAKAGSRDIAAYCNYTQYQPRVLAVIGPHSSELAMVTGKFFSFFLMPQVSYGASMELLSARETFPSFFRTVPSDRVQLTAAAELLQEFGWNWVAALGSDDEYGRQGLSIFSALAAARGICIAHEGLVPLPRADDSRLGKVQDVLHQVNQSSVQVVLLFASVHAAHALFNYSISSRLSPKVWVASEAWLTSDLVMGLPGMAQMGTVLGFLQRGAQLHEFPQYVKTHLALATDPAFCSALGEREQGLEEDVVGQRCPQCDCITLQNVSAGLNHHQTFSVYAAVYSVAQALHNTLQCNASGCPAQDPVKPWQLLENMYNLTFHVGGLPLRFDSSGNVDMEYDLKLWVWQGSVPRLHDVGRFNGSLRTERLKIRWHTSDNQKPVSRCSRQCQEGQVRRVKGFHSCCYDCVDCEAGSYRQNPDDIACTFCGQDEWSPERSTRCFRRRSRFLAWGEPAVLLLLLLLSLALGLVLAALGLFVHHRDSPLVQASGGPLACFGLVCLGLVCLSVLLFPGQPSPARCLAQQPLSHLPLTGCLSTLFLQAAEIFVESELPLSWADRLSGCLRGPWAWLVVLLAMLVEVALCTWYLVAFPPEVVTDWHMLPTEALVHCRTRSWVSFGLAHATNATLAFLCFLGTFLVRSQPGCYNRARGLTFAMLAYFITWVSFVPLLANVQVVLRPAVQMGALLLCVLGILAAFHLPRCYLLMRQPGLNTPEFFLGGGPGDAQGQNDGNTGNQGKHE
The assay is described as follows: GCaMP6S calcium imaging in HEK293T-Gα[…]gust44 cells expressing TAS1R2/TAS1R3, mock-corrected. Type of assay: cell-based.

As for `C[C@]1(CO)CC(=O)[C@]2(C)CC[C@]3(C)C(=CCC4[C@@]5(C)CC[C@H](OC6O[C@H](C(=O)O)[C@@H](O)[C@H](O)[C@H]6O[C@@H]6OC[C@@H](O)[C@H](O)[C@H]6O)[C@](C)(CO)C5CC[C@]43C)C2C1` (stereo partly drawn) [compound 2, 3-O-β-D-xylopyranosyl-(1→2)-β-D-glucuronopyranosylwistariasapogenol A], the EC50 was 35.9 µM.

In the case of `C[C@@H]1O[C@@H](O[C@H]2[C@H](O[C@H]3C(O[C@H]4CC[C@@]5(C)C(CC[C@]6(C)C5CC=C5C7C[C@@](C)(CO)CC(=O)[C@]7(C)CC[C@]56C)[C@@]4(C)CO)O[C@H](C(=O)O)[C@@H](O)[C@@H]3O)OC[C@@H](O)[C@@H]2O)[C@H](O)[C@H](O)[C@H]1O` (stereo partly drawn) [compound 3, 3-O-α-L-rhamnopyranosyl-(1→2)-β-D-xylopyranosyl-(1→2)-β-D-glucuronopyranosywistariasapogenol A], the EC50 was 31.3 µM.

Regarding `CC1(C)[C@@H](O[C@H]2O[C@H](C(=O)O)[C@@H](O)[C@H](O)[C@H]2O[C@@H]2O[C@H](C(=O)O)[C@@H](O)[C@H](O)[C@H]2O)CC[C@]2(C)[C@H]3C(=O)C=C4[C@@H]5C[C@@](C)(C(=O)O)CC[C@]5(C)CC[C@@]4(C)[C@]3(C)CC[C@@H]12` [glycyrrhizin], the EC50 was 41.3 µM.

As to `OC[C@H]1O[C@H](O[C@]2(CCl)O[C@H](CCl)[C@@H](O)[C@@H]2O)[C@H](O)[C@@H](O)[C@H]1Cl` [sucralose, reference compound], for the setting “read-out: EC50 (converted)”, the EC50 is 40.2 µM.

Source of the values: publication PMC9699193, “Activation of a Sweet Taste Receptor by Oleanane-Type Glycosides from Wisteria sinensis” (Molecules, 2022).
